Results: ChEMBL document CHEMBL1136336, “Aryl[a]pyrrolo[3,4-c]carbazoles as selective cyclin D1-CDK4 inhibitors” (Bioorg Med Chem Lett, 2003)

Columns and labels:
[1] = tested on: NCI-H460; assay: Inhibition of human NCI-H460 (lung) carcinoma cell proliferation; assay type: functional, cell-based
[2] = tested on: HCT-116; assay: Inhibition of human HCT(colon) carcinoma cell proliferation; assay type: functional, cell-based
[3] = target: Cyclin-dependent kinase 4/cyclin D1 (Homo sapiens, UniProt P11802); assay: Inhibitory activity against Cyclin D1-cyclin-dependent kinase 4 by measuring the phosphorylation of RbING; assay type: protein-complex assay
[4] = target: cAMP-dependent protein kinase (PKA) (Homo sapiens, UniProt P22694+P17612+P22612); assay: Inhibition of Protein kinase A; assay type: protein assay
[5] = target: Protein kinase C beta type (Homo sapiens, UniProt P05771); assay: Inhibition of Protein kinase C beta 2
[6] = target: Protein kinase C gamma type (Homo sapiens, UniProt P05129); assay: Inhibition of Protein kinase C gamma
[7] = target: Protein kinase C alpha type (Homo sapiens, UniProt P17252); assay: Inhibition of Protein kinase C alpha
[8] = target: Glycogen synthase kinase-3 beta (Homo sapiens, UniProt P49841); assay: Inhibition of Glycogen synthase kinase-3 beta
[9] = target: Cyclin-dependent kinase 1/cyclin B (Homo sapiens, UniProt P06493); assay: Inhibition of Cyclin B-cyclin-dependent kinase 1; assay type: protein-complex assay
[10] = target: Cyclin-dependent kinase 2/cyclin E (Homo sapiens, UniProt P24941); assay: Inhibition of Cyclin E-cyclin-dependent kinase 2; assay type: protein-complex assay

Cyclin-dependent kinase 4/cyclin D1, sequence (P11802 whole entry): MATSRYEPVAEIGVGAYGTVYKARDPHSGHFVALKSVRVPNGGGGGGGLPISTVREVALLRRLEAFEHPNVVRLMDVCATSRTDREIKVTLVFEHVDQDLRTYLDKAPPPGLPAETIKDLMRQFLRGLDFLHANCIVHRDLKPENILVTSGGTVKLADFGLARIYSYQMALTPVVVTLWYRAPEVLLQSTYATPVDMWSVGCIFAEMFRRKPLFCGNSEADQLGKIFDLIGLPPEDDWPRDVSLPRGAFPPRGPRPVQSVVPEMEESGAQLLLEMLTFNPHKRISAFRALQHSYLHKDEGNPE
Cyclin-dependent kinase 4/cyclin D1, sequence (P24385 whole entry, further chain): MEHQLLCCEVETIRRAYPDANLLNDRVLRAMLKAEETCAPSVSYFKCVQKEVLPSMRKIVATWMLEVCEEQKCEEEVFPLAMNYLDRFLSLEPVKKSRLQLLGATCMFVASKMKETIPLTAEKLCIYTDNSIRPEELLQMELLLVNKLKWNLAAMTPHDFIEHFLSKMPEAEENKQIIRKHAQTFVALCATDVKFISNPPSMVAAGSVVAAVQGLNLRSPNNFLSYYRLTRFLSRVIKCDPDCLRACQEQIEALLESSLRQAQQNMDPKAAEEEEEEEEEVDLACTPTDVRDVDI
Protein kinase C beta type, sequence (P05771 whole entry): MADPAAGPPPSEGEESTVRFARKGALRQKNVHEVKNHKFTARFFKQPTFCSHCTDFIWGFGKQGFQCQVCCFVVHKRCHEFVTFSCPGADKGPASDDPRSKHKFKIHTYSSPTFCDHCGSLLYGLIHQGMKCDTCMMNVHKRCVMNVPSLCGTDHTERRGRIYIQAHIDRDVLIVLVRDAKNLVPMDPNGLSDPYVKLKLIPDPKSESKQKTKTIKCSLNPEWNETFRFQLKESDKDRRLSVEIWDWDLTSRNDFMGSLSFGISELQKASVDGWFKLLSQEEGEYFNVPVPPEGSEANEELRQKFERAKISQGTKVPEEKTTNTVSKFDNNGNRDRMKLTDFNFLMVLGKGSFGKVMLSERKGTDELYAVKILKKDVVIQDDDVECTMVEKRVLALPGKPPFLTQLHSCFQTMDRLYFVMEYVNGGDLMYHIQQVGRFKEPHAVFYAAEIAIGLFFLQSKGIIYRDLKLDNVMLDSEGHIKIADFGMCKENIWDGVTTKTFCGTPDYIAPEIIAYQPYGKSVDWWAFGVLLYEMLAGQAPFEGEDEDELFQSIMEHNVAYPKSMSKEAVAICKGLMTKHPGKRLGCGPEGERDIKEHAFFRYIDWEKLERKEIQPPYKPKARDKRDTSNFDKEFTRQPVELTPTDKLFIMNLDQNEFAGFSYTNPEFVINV
Glycogen synthase kinase-3 beta, sequence (P49841 whole entry): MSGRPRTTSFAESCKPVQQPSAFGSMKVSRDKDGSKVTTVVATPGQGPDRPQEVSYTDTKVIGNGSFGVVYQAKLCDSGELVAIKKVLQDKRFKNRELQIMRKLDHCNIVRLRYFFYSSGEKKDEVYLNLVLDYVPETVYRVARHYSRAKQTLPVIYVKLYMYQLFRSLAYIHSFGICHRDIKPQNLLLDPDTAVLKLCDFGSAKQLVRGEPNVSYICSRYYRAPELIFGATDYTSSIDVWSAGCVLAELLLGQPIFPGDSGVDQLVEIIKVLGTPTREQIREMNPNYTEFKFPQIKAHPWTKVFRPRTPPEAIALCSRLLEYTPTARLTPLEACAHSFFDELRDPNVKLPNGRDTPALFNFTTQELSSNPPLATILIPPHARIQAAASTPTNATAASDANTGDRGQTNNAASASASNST

Row | Compound | IC50 [1] | IC50 [2] | IC50 [3] | also measured
1 | O=C1NC(O)c2c1c1c3ccccc3[nH]c1c1[nH]c3ccccc3c21 (centres undefined) | – | – | 3830 nM | –
2 | O=C1NC(=O)c2c1c1c3c(ccc1c1[nH]c4ccccc4c21)CCCC3 | – | – | 410 nM | –
3 | O=C1NC(=O)c2c1c1[nH]cnc1c1[nH]c3ccccc3c21 [GRANULATIMIDE] | – | – | 740 nM | –
4 | O=C1NC(=O)c2c1c1c3ccccc3[nH]c1c1[nH]c3ccccc3c21 [STAUROSPORINE AGLYCON] | – | – | – | IC50 [4]: > 2000 nM
5 | O=C1NC(=O)c2c1c1c3ccccc3ccc1c1[nH]c3ccccc3c21 | 2110 nM | 5050 nM | 45 nM | IC50 [5]: 9000 nM; IC50 [6]: 56500 nM; IC50 [4]: > 20000 nM; IC50 [7]: 52800 nM; IC50 [8]: 4380 nM; IC50 [9]: 590 nM; IC50 [10]: 275 nM
6 | O=C1NCc2c1c1c3ccccc3[nH]c1c1[nH]c3ccccc3c21 [STAUROSPORINONE] | 3200 nM | 1720 nM | 830 nM | IC50 [4]: > 2000 nM; IC50 [10]: > 1000 nM

Now from value to compound, other results behind:

Row | IC50 [1] | IC50 [2] | IC50 [3] | Compound | also measured
7 | 2840 nM | 3020 nM | 220 nM | O=C1NC(=O)c2c1c1c3ccccc3[nH]c1c1sc3ccccc3c21 | –
8 | > 10000 nM | > 10000 nM | 180 nM | O=C1NC(=O)c2c1c1ncccc1c1[nH]c3ccccc3c21 | –
9 | > 10000 nM | > 10000 nM | 430 nM | O=C1NC(=O)c2c1c1ccc3ccccc3c1c1[nH]c3ccccc3c21 | –
10 | > 10000 nM | > 10000 nM | 150 nM | O=C1NC(=O)c2c1c1sccc1c1[nH]c3ccccc3c21 | –
11 | – | – | 1810 nM | O=C1NC(=O)c2c1c1ccncc1c1[nH]c3ccccc3c21 | –
12 | 3420 nM | 5830 nM | 260 nM | O=C1NC(=O)c2c1c1ccccc1c1[nH]c3ccccc3c21 | –
13 | – | – | > 10000 nM | O=C1NC(=O)c2c1c1cc3ccccc3cc1c1[nH]c3ccccc3c21 | –
14 | 1160 nM | 1050 nM | 250 nM | O=C1NC(=O)c2c1c1c3ccc[nH]c-3nc1c1[nH]c3ccccc3c21 | –
